Experimental data from US7943770B2, “Fused quinoline derivative and use thereof” (Takeda Pharmaceutical Company Limited, priority 2004, dated 2011).

These molecules were tested against T1, hNK2 receptor (Homo sapiens, UniProt P21452) (assay: Radio-ligand ([125I]-NKA) receptor binding inhibitory activity using membrane fraction of hNK2 receptor-expressing CHO cell). Conditions: membrane fraction of hNK2 receptor-expressing CHO cells, 25° C., 30 min.
T1 construct: host or cells: CHO cells
T1 sequence (P21452 1-398): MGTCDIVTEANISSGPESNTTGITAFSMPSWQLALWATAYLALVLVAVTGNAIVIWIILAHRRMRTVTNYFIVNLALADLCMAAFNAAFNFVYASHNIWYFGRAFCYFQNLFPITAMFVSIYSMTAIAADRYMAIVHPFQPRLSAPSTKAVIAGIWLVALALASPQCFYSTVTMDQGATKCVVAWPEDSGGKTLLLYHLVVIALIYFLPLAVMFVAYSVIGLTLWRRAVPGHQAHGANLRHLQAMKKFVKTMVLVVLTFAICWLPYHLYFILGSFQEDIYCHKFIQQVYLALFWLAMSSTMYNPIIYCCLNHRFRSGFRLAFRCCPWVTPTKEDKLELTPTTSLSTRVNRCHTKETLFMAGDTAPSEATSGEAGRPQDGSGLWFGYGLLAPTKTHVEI
Description: hNK2 receptor-expressing CHO cells (produced by EUROSCREEN) were cultured in HAM-F12 medium containing 400 μg/ml Geneticin, 100 U/mL penicillin, 100 μg/mL streptomycin and 10% inactivated serum. The medium was removed and adhered cells were washed with PBS, and PBS containing 5 mM EDTA was added to detach the cells from the flask. The cells were recovered by centrifugation, suspended in suspending buffer A (15 mM Tris-HCl (pH 7.5), 2 mM MgCl2, 0.3 mM EDTA, 1 mM EGTA), disrupted by POLYTRON homogenizer (manufactured by KINEMATICA) and centrifuged at 800×g for 10 min. The supernatant was recovered and ultracentrifuged at 100000×g for 25 min. The precipitated fraction was suspended in suspending buffer B (7.5 mM Tris-HCl (pH 7.5), 12.5 mM MgCl2, 0.3 mM EDTA, 1 mM, […], 250 mM Sucrose) and cryopreserved (at −80° C.) as a receptor specimen.
An assay buffer (50 μl, 50 mM Tris-HCl (pH 7.4), 0.02% bovine serum albumin, 2 μg/mL chymostatin, 40 μg/mL bacitracin, 40 μg/mL APMSF, 3 mM MnCl2) was added to a 96 well microassay plate. Thereto was added a 20 μg/mL membrane specimen suspended in the assay buffer (50 μL). An assay buffer (50 μL) containing 2% dimethyl sulfoxide was added to examine the total binding, 4 unlabeled NKA (produced by Peptide Institute, Inc.) solution (50 μL) diluted with an assay buffer containing 2% dimethyl sulfoxide was added to examine non-specific binding, and a test compound diluted with an assay buffer (50 containing 2% dimethyl sulfoxide) was added to examine the binding inhibitory activity of the test compound. Furthermore, […] [^125I]-NKA (produced by Amersham Biosciences) solution (50 μL) was added to each well.
After reaction at 25° C. for 30 min., the reaction was stopped by rapid filtration on a unifilter plate (GF/C) (manufactured by PerkinElmer) using a cell harvester (manufactured by PerkinElmer) and the cells were washed 5 times with 50 mM Tris-HCl (pH 7.4) buffer containing 0.02% bovine serum albumin (250 μL). The GF/C filter plate was dried and 20 μl, of MicroScinti-O (manufactured by PerkinElmer) was added and the radioactivity was measured in Topcount (manufactured by PerkinElmer). The GF/C filter plate, which had been immersed in 0.3% polyethyleneimine for one day, was used. Specific binding is shown by the value obtained by subtracting non-specific binding from the total binding. The binding inhibitory activity of the test compound is shown by the ratio of the value obtained by subtracting the measured value associated with the addition of the test compound from the total binding, to the value of the specific binding.
For COc1ccc(C(=O)N[C@@H]2CCCC[C@@H]2C(=O)N2CC[C@@H]3[C@H](c4ccccc4)Nc4ccccc4[C@@H]32)cc1 [Example 90, 4-Methoxy-N-((1R,2S)-2-{[(3aR,4R,9bR)-4-phenyl-2,3,3a,4,5,9b-hexahydro-1H-pyrrolo[3,2-c]quinolin-1-yl]carbonyl}cyclohexyl)benzamide], the IC50 was < 1 nM. With O=C(N[C@@H]1CCCC[C@@H]1C(=O)N1CC[C@H]2[C@@H](c3ccsc3)Nc3ccccc3[C@H]21)c1ccccc1 (relative stereo) [Example 18, N-((1R,2S)-2-{[(3aS*,4S*,9bS*)-4-(3-Thienyl)-2,3,3a,4,5,9b-hexahydro-1H-pyrrolo[3,2-c]quinolin-1-yl]carbonyl}cyclohexyl)benzamide] the IC50 was < 1 nM. In the case of CCC[C@@H]1Nc2ccccc2[C@H]2[C@@H]1CCN2C(=O)[C@H]1CCCC[C@H]1NC(=O)NCC [Example 198, N-Ethyl-N′-((1R,2S)-2-{[(3aR,4S,9bR)-4-propyl-2,3,3a,4,5,9b-hexahydro-1H-pyrrolo[3,2-c]quinolin-1-yl]carbonyl}cyclohexyl)urea], the IC50 is reported as < 10 nM. With O=C(Nc1ccc(C(F)(F)F)cc1)N[C@@H]1CCCC[C@@H]1C(=O)N1CC[C@@H]2[C@H](c3ccccc3)Nc3ccccc3[C@@H]21 [Example 140, N-((1R,2S)-2-{[(3aR,4R,9bR)-4-Phenyl-2,3,3a,4,5,9b-hexahydro-1H-pyrrolo[3,2-c]quinolin-1-yl]carbonyl}cyclohexyl)-N′-[4-(trifluoromethyl)phenyl]urea] the IC50 was < 10 nM. For O=C(N[C@@H]1CCCC[C@@H]1C(=O)N1CC[C@@H]2[C@H](c3ncc[nH]3)Nc3ccccc3[C@@H]21)c1ccc(C(F)(F)F)cc1 [Example 296, N-((1R,2S)-2-{[(3aR,4R,9bR)-4-(1H-Imidazol-2-yl)-2,3,3a,4,5,9b-hexahydro-1H-pyrrolo[3,2-c]quinolin-1-yl]carbonyl}cyclohexyl)-4-(trifluoromethyl)benzamide], the IC50 was < 1 nM. With O=C(N[C@@H]1CCCC[C@@H]1C(=O)N1CC[C@@H]2[C@H](c3ncc[nH]3)Nc3ccccc3[C@@H]21)c1ccc(Cl)cc1 [Example 303, 4-Chloro-N-((1R,2S)-2-{[(3aR,4R,9bR)-4-(1H-imidazol-2-yl)-2,3,3a,4,5,9b-hexahydro-1H-pyrrolo[3,2-c]quinolin-1-yl]carbonyl}cyclohexyl)benzamide] the IC50 was < 1 nM. In the case of COC[C@@H]1Nc2ccccc2[C@H]2[C@@H]1CCN2C(=O)[C@H]1CCCC[C@H]1NC(=O)c1ccc(N(C)CCO)cc1 [Example 270, 4-[(2-Hydroxyethyl) (methyl)amino]-N-((1R,2S)-2-{[(3aR,4R,9bR)-4-(methoxymethyl)-2,3,3a,4,5,9b-hexahydro-1H-pyrrolo[3,2-c]quinolin-1-yl]carbonyl}cyclohexyl)benzamide], the IC50 is reported as < 10 nM. With COc1ccc(NC(=O)N[C@@H]2CCCC[C@@H]2C(=O)N2CC[C@@H]3[C@H](C4CC4)Nc4ccccc4[C@@H]32)cc1 [Example 184, N-((1R,2S)-2-{[(3aR,4S,9bR)-4-Cyclopropyl-2,3,3a,4,5,9b-hexahydro-1H-pyrrolo[3,2-c]quinolin-1-yl]carbonyl}cyclohexyl)-N′-(4-methoxyphenyl)urea] the IC50 was < 1 nM. For CCNC(=O)N[C@@H]1CCCC[C@@H]1C(=O)N1CC[C@@H]2[C@H](c3ccccc3)Nc3ccccc3[C@@H]21 [Example 151, N-Ethyl-N′-((1R,2S)-2-{[(3aR,4R,9bR)-4-phenyl-2,3,3a,4,5,9b-hexahydro-1H-pyrrolo[3,2-c]quinolin-1-yl]carbonyl}cyclohexyl)urea], the IC50 was < 10 nM. COC[C@@H]1Nc2ccccc2[C@H]2[C@@H]1CCN2C(=O)[C@H]1CCCC[C@H]1NC(=O)c1ccc2ncsc2c1 [Example 253, N-((1R,2S)-2-{[(3aR,4R,9bR)-4-(Methoxymethyl)-2,3,3a,4,5,9b-hexahydro-1H-pyrrolo[3,2-c]quinolin-1-yl]carbonyl}cyclohexyl)-1,3-benzothiazole-6-carboxamide] was tested, and the IC50 was < 10 nM. In the case of O=C(N[C@@H]1CCCC[C@@H]1C(=O)N1CC[C@@H]2[C@H](c3ncc[nH]3)Nc3ccccc3[C@@H]21)c1ccc(F)c(Cl)c1 [Example 301, 3-Chloro-4-fluoro-N-((1R,2S)-2-{[(3aR,4R,9bR)-4-(1H-imidazol-2-yl)-2,3,3a,4,5,9b-hexahydro-1H-pyrrolo[3,2-c]quinolin-1-yl]carbonyl}cyclohexyl)benzamide], the IC50 is reported as < 1 nM. With COC[C@@H]1Nc2ccccc2[C@H]2[C@@H]1CCN2C(=O)[C@H]1CCCC[C@H]1NC(=O)c1ccc(CNC(C)=O)cc1 [Example 263, 4-[(Acetylamino)methyl]-N-((1R,2S)-2-{[(3aR,4R,9bR)-4-(methoxymethyl)-2,3,3a,4,5,9b-hexahydro-1H-pyrrolo[3,2-c]quinolin-1-yl]carbonyl}cyclohexyl)benzamide] the IC50 was < 10 nM. N#Cc1ccc(NC(=O)N[C@@H]2CCCC[C@@H]2C(=O)N2CC[C@@H]3[C@H](c4ncc[nH]4)Nc4ccccc4[C@@H]32)cc1 [Example 307, N-(4-Cyanophenyl)-N′-((1R,2S)-2-{[(3aR,4R,9bR)-4-(1H-imidazol-2-yl)-2,3,3a,4,5,9b-hexahydro-1H-pyrrolo[3,2-c]quinolin-1-yl]carbonyl}cyclohexyl)urea] was tested, and the IC50 was < 1 nM. For CCC(=O)N[C@@H]1CCCC[C@@H]1C(=O)N1CC[C@@H]2[C@H](c3ccccc3)Nc3ccccc3[C@@H]21 [Example 86, N-((1R,2S)-2-{[(3aR,4R,9bR)-4-Phenyl-2,3,3a,4,5,9b-hexahydro-1H-pyrrolo[3,2-c]quinolin-1-yl]carbonyl}cyclohexyl)propanamide], the IC50 was < 10 nM. In the case of CCC[C@@H]1Nc2ccccc2[C@H]2[C@@H]1CCN2C(=O)[C@H]1CCCC[C@H]1NC(=O)c1ccc(C#N)cc1 [Example 202, 4-Cyano-N-((1R,2S)-2-{[(3aR,4S,9bR)-4-propyl-2,3,3a,4,5,9b-hexahydro-1H-pyrrolo[3,2-c]quinolin-1-yl]carbonyl}cyclohexyl)benzamide], the IC50 is reported as < 1 nM. N#Cc1cccc(C(=O)N[C@@H]2CCCC[C@@H]2C(=O)N2CC[C@@H]3[C@H](c4ncc[nH]4)Nc4ccccc4[C@@H]32)c1 [Example 308, 3-Cyano-N-((1R,2S)-2-{[(3aR,4R,9bR)-4-(1H-imidazol-2-yl)-2,3,3a,4,5,9b-hexahydro-1H-pyrrolo[3,2-c]quinolin-1-yl]carbonyl}cyclohexyl)benzamide] was tested, and the IC50 was < 1 nM. O=C(N[C@@H]1CCCC[C@@H]1C(=O)N1CC[C@@H]2[C@H](c3ncc[nH]3)Nc3ccccc3[C@@H]21)c1ccccc1 (relative stereo) [Example 54, N-((1R,2S)-2-{[(3aR*,4R*,9bR*)-4-(1H-Imidazol-2-yl)-2,3,3a,4,5,9b-hexahydro-1H-pyrrolo[3,2-c]quinolin-1-yl]carbonyl}cyclohexyl)benzamide] was tested, and the IC50 was < 1 nM. For COC(=O)CCCCC(=O)N[C@@H]1CCCC[C@@H]1C(=O)N1CC[C@@H]2[C@H](c3ccccc3)Nc3ccccc3[C@@H]21 [Example 116, Methyl 6-oxo-6-[((1R,2S)-2-{[(3aR,4R,9bR)-4-phenyl-2,3,3a,4,5,9b-hexahydro-1H-pyrrolo[3,2-c]quinolin-1-yl]carbonyl}cyclohexyl)amino]hexanoate], the IC50 was < 10 nM. With COc1cccc(C(=O)N[C@@H]2CCCC[C@@H]2C(=O)N2CC[C@@H]3[C@H](c4ccccc4)Nc4ccccc4[C@@H]32)c1 [Example 95, 3-Methoxy-N-((1R,2S)-2-{[(3aR,4R,9bR)-4-phenyl-2,3,3a,4,5,9b-hexahydro-1H-pyrrolo[3,2-c]quinolin-1-yl]carbonyl}cyclohexyl)benzamide] the IC50 was < 10 nM. In the case of COC[C@@H]1Nc2ccccc2[C@H]2[C@@H]1CCN2C(=O)[C@H]1CCCC[C@H]1NC(=O)c1ccc(C#N)cc1 [Example 216, 4-Cyano-N-((1R,2S)-2-{[(3aR,4R,9bR)-4-(methoxymethyl)-2,3,3a,4,5,9b-hexahydro-1H-pyrrolo[3,2-c]quinolin-1-yl]carbonyl}cyclohexyl)benzamide], the IC50 is reported as < 10 nM.
